The values that follow come from patent US20100239639A1, “MEDICATED PATCH” (HISAMITSU PHARMACEUTICAL CO., INC., priority 2007, published 2010).

The series can be described thus: Solubility test of BM-DBM. The series is classed as physicochemical. Conditions: 1 g BM-DBM mixed with 2 g additive, dissolved at 140° C., cooled to room temperature for 30 min. As to the method: 1 g of BM-DBM was mixed with 2 g of an additive, dissolved at 140° C., then the mixture was cooled to room temperature for 30 min and its state was observed.

`CCCCCCCCCCCC(=O)OCCCCCC` [Hexyl laurate]: the “Solubility of BM-DBM” value is “◯” and the “solubility of BM-DBM (in words)” value was “particularly good solubility of BM-DBM”.
